Each compound was assayed against T1, CETP (Homo sapiens, UniProt P11597) (assay: Assay of CETP Inhibition using Purified Components (Reconstituted Buffer Assay)). Conditions: Inhibition of CETP activity in reconstituted buffer assay; transfer of [3H]CE from HDL to LDL; read-out: IC50.
T1 sequence (P11597 18-493): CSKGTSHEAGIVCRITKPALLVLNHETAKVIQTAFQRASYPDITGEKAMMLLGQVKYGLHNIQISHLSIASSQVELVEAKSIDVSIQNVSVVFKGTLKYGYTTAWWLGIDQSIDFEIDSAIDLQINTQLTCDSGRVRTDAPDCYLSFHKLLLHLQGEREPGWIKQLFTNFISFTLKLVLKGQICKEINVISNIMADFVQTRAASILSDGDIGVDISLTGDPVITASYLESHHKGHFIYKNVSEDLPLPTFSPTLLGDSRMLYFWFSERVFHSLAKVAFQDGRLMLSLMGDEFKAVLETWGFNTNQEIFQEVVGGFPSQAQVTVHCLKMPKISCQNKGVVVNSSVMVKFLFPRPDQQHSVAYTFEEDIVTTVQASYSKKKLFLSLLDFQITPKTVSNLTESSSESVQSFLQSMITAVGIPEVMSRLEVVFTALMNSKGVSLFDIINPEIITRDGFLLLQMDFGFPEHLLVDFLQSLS
Format: biochemical
Design: made in house; host or cells: CHO cells (serum-free conditioned medium)
How it was run: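 Purified human recombinant CETP from transfected CHO cells was incubated with [^3H]CE-labeled HDL donor and LDL acceptor in Tris pH 7.4/NaCl/EDTA/1% BSA buffer for 2 h at 37 °C. LDL was then precipitated with dextran sulfate/MgCl2, filtered, and counted by liquid scintillation to give IC50 for CE transfer.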
`OC(CN(Cc1ccncc1)c1cccc(OC(F)(F)F)c1)C(F)(F)F` (centres unmarked) [Example 349] gave an IC50 greater than 100 µM. In the case of `OC(CN(CC=Cc1ccccc1)c1cccc(OC(F)(F)F)c1)C(F)(F)F` (centres unmarked) [Example 352], the IC50 is reported as 35 µM. Compound `COc1cc(OC)cc(C(=O)N(CC(O)C(F)(F)F)c2cccc(OC(F)(F)F)c2)c1` (centres unmarked) [Example 353] has an IC50 of 70 µM. With `COc1cc(OC)c(OC)cc1CN(CC(O)C(F)(F)F)c1cccc(OC(F)(F)F)c1` (centres unmarked) [Example 354] the IC50 was greater than 100 µM. `COc1ccc(OC)c(CN(CC(O)C(F)(F)F)c2cccc(OC(F)(F)F)c2)c1` (centres unmarked) [Example 355] gave an IC50 of 75 µM. For `O=C(O)c1cccc(CN(CC(O)C(F)(F)F)c2cccc(OC(F)(F)F)c2)c1` (centres unmarked) [Example 356], the IC50 was greater than 100 µM. `Oc1cccc(CN(CC(O)C(F)(F)F)c2cccc(OC(F)(F)F)c2)c1` (centres unmarked) [Example 357] was tested, and the IC50 was 40 µM. `Oc1ccc(O)c(CN(CC(O)C(F)(F)F)c2cccc(OC(F)(F)F)c2)c1` (centres unmarked) [Example 358] gave an IC50 greater than 100 µM. Work on `Oc1cc(CN(CC(O)C(F)(F)F)c2cccc(OC(F)(F)F)c2)cc(O)c1O` (centres unmarked) [Example 359] yielded an IC50 greater than 100 µM. `Oc1cc(O)cc(CN(CC(O)C(F)(F)F)c2cccc(OC(F)(F)F)c2)c1` (centres unmarked) [Example 360] showed an IC50 greater than 100 µM. In the case of `OC(CN(Cc1ccc2ccccc2n1)c1cccc(OC(F)(F)F)c1)C(F)(F)F` (centres unmarked) [Example 362], the IC50 is reported as 45 µM. Compound `OC(CN(Cc1ccccn1)c1cccc(OC(F)(F)F)c1)C(F)(F)F` (centres unmarked) [Example 363] has an IC50 of 40 µM. For `OC(CN(Cc1nc2ccccc2[nH]1)c1cccc(OC(F)(F)F)c1)C(F)(F)F` (centres unmarked) [Example 364], the IC50 was greater than 100 µM. `OC(CN(Cc1nccn1Cc1ccccc1)c1cccc(OC(F)(F)F)c1)C(F)(F)F` (centres unmarked) [Example 365] was tested, and the IC50 was greater than 100 µM. `OC(CN(Cc1cc(Cl)nc(Cl)c1)c1cccc(OC(F)(F)F)c1)C(F)(F)F` (centres unmarked) [Example 366] showed an IC50 of 80 µM. With `CCCCOc1ccc(NC(=O)N(CC(O)C(F)(F)F)c2cccc(OC(F)(F)F)c2)cc1` (centres unmarked) [Example 367, N′-(4-butoxyphenyl)-N-(3,3,3-trifluoro-2-hydroxypropyl)-N-[3-(trifluoromethoxy)phenyl]urea] the IC50 was greater than 100 µM. `CSc1ccccc1NC(=O)N(CC(O)C(F)(F)F)c1cccc(OC(F)(F)F)c1` (centres unmarked) [Example 368] showed an IC50 greater than 100 µM. `O=C(Nc1ccc(-c2ccccc2)cc1)N(CC(O)C(F)(F)F)c1cccc(OC(F)(F)F)c1` (centres unmarked) [Example 369] was tested, and the IC50 was greater than 100 µM. For `Cc1ccc(S(=O)(=O)NC(=O)N(CC(O)C(F)(F)F)c2cccc(OC(F)(F)F)c2)cc1` (centres unmarked) [Example 370], the IC50 was greater than 100 µM. With `Oc1cccc(N(Cc2cccc(OC(F)(F)C(F)F)c2)CC(O)C(F)(F)F)c1` (centres unmarked) [Example 371, 3-[[[3-(1,1,2,2-tetrafluoroethoxy)phenyl]methyl](3,3,3-trifluoro-2-hydroxypropyl)amino]phenol] the IC50 was 3.9 µM. With `O=[N+]([O-])c1ccc(COc2cccc(N(Cc3cccc(OC(F)(F)C(F)F)c3)CC(O)C(F)(F)F)c2)cc1` (centres unmarked) [Example 375] the IC50 was 4.5 µM. `OC(CN(Cc1cccc(OC(F)(F)C(F)F)c1)c1cccc(OCc2c(F)c(F)c(F)c(F)c2F)c1)C(F)(F)F` (centres unmarked) [Example 376] gave an IC50 of 3.3 µM. Compound `OC(CN(Cc1cccc(OC(F)(F)C(F)F)c1)c1cccc(OCc2c(F)c(F)c(C(F)(F)F)c(F)c2F)c1)C(F)(F)F` (centres unmarked) [Example 380] has an IC50 of 11 µM. In the case of `OC(CN(Cc1cccc(OC(F)(F)C(F)F)c1)c1cccc(OCc2ccc(F)cc2C(F)(F)F)c1)C(F)(F)F` (centres unmarked) [Example 381], the IC50 is reported as 1.2 µM. Work on `O=[N+]([O-])c1cccc(COc2cccc(N(Cc3cccc(OC(F)(F)C(F)F)c3)CC(O)C(F)(F)F)c2)c1` (centres unmarked) [Example 382] yielded an IC50 of 2.3 µM. `N#Cc1cccc(COc2cccc(N(Cc3cccc(OC(F)(F)C(F)F)c3)CC(O)C(F)(F)F)c2)c1` (centres unmarked) [Example 383] showed an IC50 of 2.3 µM. `N#Cc1ccc(COc2cccc(N(Cc3cccc(OC(F)(F)C(F)F)c3)CC(O)C(F)(F)F)c2)cc1` (centres unmarked) [Example 384] was tested, and the IC50 was 1.6 µM. `COc1c(F)c(F)c(COc2cccc(N(Cc3cccc(OC(F)(F)C(F)F)c3)CC(O)C(F)(F)F)c2)c(F)c1F` (centres unmarked) [Example 386] gave an IC50 of 3.2 µM. `COC(=O)c1cccc(COc2cccc(N(Cc3cccc(OC(F)(F)C(F)F)c3)CC(O)C(F)(F)F)c2)c1` (centres unmarked) [Example 387] gave an IC50 of 2.2 µM.

From patent US6723753B2, “Substituted n-benzyl-n-phenyl aminoalcohol compounds useful for inhibiting cholesteryl ester transfer protein activity” (Pharmacia Corporation, priority 2002, dated 2004)
